How the values were obtained:
human RPE cells = assay: Oxidative-stress and Erastin induced cell death in human RPE cells; type: cell-based
[1] = tested on: pro-inflammatory transcriptome and pro-homeostatic pathways in RPE single-cells; assay: UOS transcriptome in RPE single-cells; type: cell-based; conditions: 96 per sample
Source text: Dots in box plots represent expression of the gene for a single RPEC (total of 96 per sample). P<0.001 (***), P<0.01 (**), One-way Anova, with Post-Hoc Tukey HSD test for multiple comparisons.

[2] = tested on: degenerating neurons of hypothalamus; assay: Fluoro-Jade B staining of organotypic slices of hypothalamus; type: cell-based; conditions: 500 nM, 48 h incubation, adult obese diabetic db/db mice
Source text: Fluoro-Jade b (F-Jb) stains degenerating neurons.

TP53 and IL8 = assay: Human adipocytes treated with IL1β: TP53 and IL8 expression by Taqman Real time PCR; type: cell-based
Source text: A) experimental design. B) expression levels of TP53 and IL8 in human diabetic and non-diabetic adipocytes by the means of Tagman Real time PCR.

IL6 = IL6 (marker of SASP) induced by IL1β in diabetic hypothalamus; type: cell-based; conditions: diabetic db/db mice hypothalamus, different effects in female and male mice
Adiponectin = Adiponectin levels in diabetic hypothalamus and adipose tissue
[3] = tested on: autophagy, UPR, MMP, senescence and inflammation genes in HNEpC; assay: HNEpC challenged with HDM: gene expression; type: cell-based, human; conditions: 500 nM; HDM 30 μg/ml
Method: HDM triggered multiple signaling in human nasal epithelial cells. HNEpC challenged with HDM (D. farinae+D. pteronyssinus) (30 μg/ml) induces the expression of several genes related with autophagy (ATG3, ATG5, ATG7, BECLIN-1, and P62), unfolded protein response (UPR) (ATF6, CHOP, and IRE1) and matrix metalloproteinases (MMPs) (MMP8, MMP2, MMP9, MMP3, MMP12, TIMP1, and TIMP2). HDM stressors also induce the expression of senescence (P21, P16, P27, and P53) and inflammation genes (IL-1a, IL-6, and IL-10) on HNEpC. […] (*p<0.0001).

[4] = tested on: IL-6, IL-1β, IL-8/CXCL8, CCL2/MCP-1, CXCL1/KC/GRO, VEGF, ICAM1(CD54), IL-10; assay: Sandwich ELISA of cytokines and chemokines in HNEpC challenged with stressors; type: cell-based, human; conditions: allergens
Source text: • Lipopolysaccharide (LPS) from Escherichia coli serotype 0111:B4 (Catalog #L4391) were obtained from Sigma-Aldrich. LPS is the principal component of Gram-negative bacteria that activates the innate immune system through its recognition by Toll-like receptor 4 (TLR4). This leads to a signaling cascade that ultimately results in the activation of NF-κB and the production of proinflammatory cytokines. LPS we used for our experiments is a preparation of smooth (S)-form LPS purified from the Gram-negative E. coli 0111:B4 that was used at 30 μg/mL to challenge HNEpC. • Polyinosinic-polycytidylic acid (abbreviated as poly(I:C) or poly(rI):poly(rC)) is a synthetic analog of double-stranded viral RNA (dsRNA), a molecular pattern associated with viral infection such as loss of epithelial integrity, increased production of mucus and inflammatory cytokines. Poly(I:C), a TLR3 agonist activates the antiviral pattern recognition receptors TLR3, RIG-I/MDA5 and PKR, thereby inducing signaling via multiple inflammatory pathways, including NF-κB and IRF. High Molecular Weight Poly(I:C) comprises long strands of inosine poly(I) homopolymer annealed to strands of cytidine poly(C) homopolymer. The average size of Poly(I:C) HMW is from 1.5 kb to 8 kb. […]

CC/C=C\C[C@H](O)\C=C/C=C/C=C/[C@H](O)C/C=C\C/C=C\CCCCCCCCCCCCC(=O)O [ELV-N-32]
oxidative-stress and Erastin induced cell deaths (human RPE cells): counteracted
UOS up-regulation of pro-inflammatory transcriptome and down-regulation of pro-homeostatic pathways [1]: suppress these changes

CC/C=C\C[C@H](O)\C=C/C=C/C=C/[C@H](O)C/C=C\C/C=C\CCCCCCCCCCCCCCC(=O)O [ELV-N-34]
Fluoro-Jade b (F-Jb) signal (neuroprotection) [2]: decrease of F-Jb signal
IL8 brought down (elevated by IL1β) (TP53 and IL8; 500 nM, both diabetic and non-diabetic adipocytes): around 40 folds
levels of TP53 mRNA (TP53 and IL8; human adipocytes from diabetic patient treated with IL1β): down to non-diabetic control levels
effect of IL1β (expression levels of TP53 and IL8) (TP53 and IL8; human diabetic adipocytes): revert the effect
levels of IL6 (marker of SASP) (IL6): reduced
adiponectin in subcutaneous adipose tissue (SAT) and visceral adipose tissue (VAT) (Adiponectin): Differential effect
levels of Adiponectin (Adiponectin; ELV34 treatment): increased
adiponectin in diabetic hypothalamus (Adiponectin; female and males): trend of increase
expression of MMP genes (MMP8, MMP2, MMP9, MMP3, MMP12, TIMP1, TIMP2) [3]: inhibits these effects
expression of inflammation / senescence-associated cytokine genes [3]: inhibits these effects
expression of senescence genes (P21, P16, P27; except P53) [3]: inhibits these effects
allergen-triggered production of inflammatory cytokines, chemokines, ICAM1 and induction of autophagy and SASP [4]: attenuated

From patent US20240075004A1, “VERY-LONG-CHAIN POLYUNSATURATED FATTY ACIDS, ELOVANOID HYDROXYLATED DERIVATIVES, AND METHODS OF USE” (The Board of Supervisors of Louisiana State University and …, priority 2020, published 2024)
